{"source": "patent US11542239B2", "about": "“Elagolix sodium compositions and processes” (AbbVie Inc., priority 2018, dated 2023)", "format_in_all_cases": "physicochemical", "key": {"[1]": {"assay": "Dry glass transition temperature of amorphous form"}, "[2]": {"assay": "Bulk density in a graduated cylinder", "conditions": "isolated amorphous elagolix sodium powder", "procedure": "The bulk density of the sample was obtained by measurement in a graduated cylinder. A 50 mL graduated cylinder (readable to 1 mL) was used in all measurement. First, the tared weight of the cylinder was obtained with a balance (readable to ±0.01 g). Sufficient amount of sample was then transferred into the cylinder, gently to avoid compaction of the sample, to a volume between 30 and 50 mL. The total weight of the sample and cylinder was then measured with the balance (readable to ±0.01 g), and the net sample weight was calculated. The bulk density is the weight of the sample divided by the apparent volume (to the nearest graduated unit)."}, "[3]": {"assay": "BET specific surface area from nitrogen adsorption isotherm", "conditions": "isolated amorphous elagolix sodium powder, precipitation/isolation conditions vary per example", "procedure": "The BET (Brunauer, Emmett and Teller) specific surface area was determined from nitrogen adsorption isotherm at 77° K using a surface area analyzer (Tristar 3020, Micromeritics, Norcross, Ga.). A sample of approximately 1-2 g was first outgassed under vacuum for 2 hours at 50° C. prior to nitrogen adsorption experiment. The multipoint measurement method was used according to USP <846>. The quantity adsorbed was measured between 0.05 and 0.3 relative pressure. A minimum of 5 data points between this pressure range was determined to obtain the specific surface area using the BET equation."}, "[4]": {"assay": "Flow properties, Schulze ring shear tester (flow function coefficient)", "conditions": "isolated amorphous elagolix sodium powder, ffc=σ/fc", "procedure": "Flow properties of each sample were characterized using a Schulze ring shear tester RST-XS (Dietmar Schulze Schuttgutmesstechnik, Wolfenbiittel, Germany). A standard annular cell of a cross-sectional area of 24 cm^2 and a volume of 30 cm^3 is used to measure the yield loci. All experiments were performed under ambient conditions immediately after the sample was removed from the sample container. During each measurement, the powder sample was first pre-sheared under a pre-consolidation stress of 1 kPa until a steady-state was reached. The pre-sheared powder was then subjected to shear under four normal stress levels of […] to obtain the yield locus (plot of shear stress at failure as a function of the normal stress). Between each shear points, the sample was pre-consolidated at 1 kPa. From the yield locus, the major principle stress (σ) and unconfined yield strength (fc) were derived by drawing two critical Mohr stress circles with the software RST-CONTROL 95 (Dietmar Schulze Schuttgiit-messtechnik, Wolfenbiittel, Germany). The major principle stress (σ) was obtained from the Mohr stress circle which is tangential to the yield locus and intersects at the point of normal and shear stresses at steady state flow. The unconfined yield strength (fc) was obtained from the Mohr stress circle which is tangential to the yield locus and runs through the origin. Flow function coefficient (ffc=σ/fc) was used to characterize the flow of the powder sample."}, "[5]": {"assay": "Particle size distribution by laser diffraction (wet dispersion)", "conditions": "isolated amorphous elagolix sodium powder", "procedure": "Particle size distribution was measured by laser diffraction using a Malvern Mastersizer 2000S (Malvern Panalytical Ltd., Malvern, United Kingdom) in the wet dispersion mode. The liquid dispersion accessory was first filled with a solution of 0.025% w/v lecithin in HPLC n-heptane. After laser background intensity was measured, approximately 40 mg of sample was added directly to the liquid dispersion accessory to obtain a target laser obscuration between 5 and 22%. Particle size distribution measurement was started immediately upon addition of the sample. The following method parameters were used: Calculation theory—Mie; Measurement model—general purpose; Measurement sensitivity—normal; Dispersant refractive index—1.39; Background time—30 s; Measurement time—30 s; Stirrer speed—1500 rpm; Measurement cycle—1."}}, "data": [{"compound": "COc1cccc(-c2c(C)n(Cc3c(F)cccc3C(F)(F)F)c(=O)n(C[C@H](NCCCC(=O)[O-])c3ccccc3)c2=O)c1F.[Na+]", "note": "[Compound (I), sodium 4-({(1R)-2-[5-(2-fluoro-3-methoxyphenyl)-3-{[2-fluoro-6-(trifluoromethyl)phenyl]methyl}-4-methyl-2,6-dioxo-3,6-dihydropyrimidin-1(2H)-yl]-1-phenylethyl}amino)butanoate]", "values": [{"measurement": "dry glass transition temperature (Tg)", "setting": "[1]", "value": "about 108 °C"}, {"measurement": "bulk density", "setting": "[2]; listed as Example 17", "value": 0.17, "unit": "g/mL"}, {"measurement": "bulk density", "setting": "[2]; listed as Example 18", "value": 0.33, "unit": "g/mL"}, {"measurement": "specific surface area", "setting": "[3]; listed as Example 14", "value": 10.4, "unit": "m^2/g"}, {"measurement": "specific surface area", "setting": "[3]; listed as Example 15", "value": 49.0, "unit": "m^2/g"}, {"measurement": "specific surface area", "setting": "[3]; listed as Example 16", "value": 0.3, "unit": "m^2/g"}, {"measurement": "specific surface area", "setting": "[3]; listed as Example 17", "value": 35.3, "unit": "m^2/g"}, {"measurement": "specific surface area", "setting": "[3]; listed as Example 18", "value": 32.2, "unit": "m^2/g"}, {"measurement": "flow function coefficient (ffc)", "setting": "[4]; listed as Example 14", "value": 1.8}, {"measurement": "flow function coefficient (ffc)", "setting": "[4]; listed as Example 15", "value": 2.8}, {"measurement": "flow function coefficient (ffc)", "setting": "[4]; listed as Example 17", "value": 1.2}, {"measurement": "flow function coefficient (ffc)", "setting": "[4]; listed as Example 18", "value": 6.8}, {"measurement": "volume-averaged particle size Dv10", "setting": "[5]; listed as Example 14", "value": 9, "unit": "μm"}, {"measurement": "volume-averaged particle size Dv10", "setting": "[5]; listed as Example 15", "value": 17, "unit": "μm"}, {"measurement": "volume-averaged particle size Dv10", "setting": "[5]; listed as Example 17", "value": 6, "unit": "μm"}, {"measurement": "volume-averaged particle size Dv10", "setting": "[5]; listed as Example 18", "value": 204, "unit": "μm"}]}]}
